From patent publication US12059422B2 (MEI Pharma, Inc., priority 2011, dated 2024)

Columns and labels:
[1] = biological target: PI3Kα (Homo sapiens, UniProt P42336); test: ELISA assay for PI3Kα: in-cell ELISA, phosphorylation of AKT (Thr308) in MDA-MB-453 cells; format: cell-based; conditions: cellular, pAKT (Thr308), IGF-1 stimulation, read-out: IC50 p110α
Experimental: PI3K alpha (PI3Kα) activity was determined by measuring the phosphorylation of AKT (Thr308) using an in-cell ELISA assay. MDA-MB-453 (breast carcinoma) cells were obtained from ATCC (ATCC #HTB-131). Growth medium was DMEM (CellGro #CV-10-013-CV) supplemented with 10% fetal bovine serum, 100 IU/mL penicillin, 100 μg/mL streptomycin, and 1×MEM non-essential amino acids. Phosphate buffered saline (PBS) contained 2.7 M NaCl, 54 mM KCl, 86 mM […] (dibasic, anhydrous), and 28 mM […] (monobasic, anhydrous) at pH 7.2. Stimulation mixture (10×) was 1000 ng/mL LONG® R^3 human IGF-1 (Sigma #I1271) diluted in serum-free DMEM medium (CellGro #CV-10-013-CV). Compounds for testing were dissolved and serially diluted in 100% DMSO (total of 10 concentrations), then diluted in serum-free DMEM to 2× final assay concentration. Fixative solution (2×) was 8% formaldehyde (Amresco #M134) diluted in PBS. Permeabilization solution was PBS supplemented with 0.1% Triton X-100. Blocking buffer was obtained from LiCor (LiCor #927-40000). Wash buffer was PBS supplemented with 0.1% Tween-20. Primary antibody solution was rabbit anti-pAKT^T308 monoclonal antibody (Cell Signaling #2965) and mouse anti-total S6 (Santa Cruz #74459) diluted 1:500 and 1:2000, respectively, in the blocking buffer. Secondary antibody solution was IRDye 800CW-conjugated goat anti-rabbit IgG (LiCor #926-32211) and IRDye 680LT-conjugated goat anti-mouse IgG (LiCor #926-68020) diluted 1:1000 and 1:2000, respectively, in the blocking buffer.
MDA-MB-453 cells were subcultured in growth medium and seeded into flat, clear bottom, 96-well plates (Corning #3904) at 40000 cells/well, then incubated overnight in a 5% CO2 incubator at 37° C. Growth medium in plates was replaced with 100 μL/well serum-free DMEM and incubated overnight at 37° C. in a 5% CO2 incubator. Fresh serum-free DMEM (50 μL/well) was added to plates. Compound treatment was performed by adding 50 μL/well of 2× compound mixture to plates and incubating for 1 hr at 37° C. and 5% CO2, after which 11 μL/well of 10× stimulation mixture was added and plates were incubated for 10 min at 37° C. and 5% CO2. Fixation was performed by adding 110 μL/well of 2× fixative solution to the plates and incubating for 20 min at room temperature. Permeabilization was performed by replacing fixation solution with 150 μL/well permeabilization solution and incubating for 10 min at room temperature. Permeabilization was repeated (for a total of 2 times). Permeabilization solution was replaced with 100 μL/well blocking buffer and plates were incubated for 1 hour at room temperature, after which 100 μL/well of primary antibody solution was added and plates were incubated overnight at 4° C. Plates were washed with wash buffer, after which 100 μL/well of secondary antibody solution was added to the plates and incubated in the dark for 1 hr at room temperature. Plates were washed with wash buffer, followed by a wash with PBS. After completely removing PBS, plates were scanned on the Licor Odyssey Imager. Images were quantified using Licor Odyssey application software. IC50 values were determined by curve fitting using a Collaborative Drug Discovery database (www.collaborativedrug.com).

[2] = biological target: T1, PI3Kγ (Mus musculus, UniProt Q9JHG7); test: ELISA assay for PI3Kγ: in-cell ELISA, phosphorylation of AKT (Ser473) in RAW 264.7 cells; format: cell-based; conditions: cellular, pAKT (Ser473), C5a stimulation, read-out: IC50 p110γ
T1 construct: endogenous in cells; host or cells: RAW 264.7 (ATCC #TIB-71)
T1 sequence (Q9JHG7 whole entry): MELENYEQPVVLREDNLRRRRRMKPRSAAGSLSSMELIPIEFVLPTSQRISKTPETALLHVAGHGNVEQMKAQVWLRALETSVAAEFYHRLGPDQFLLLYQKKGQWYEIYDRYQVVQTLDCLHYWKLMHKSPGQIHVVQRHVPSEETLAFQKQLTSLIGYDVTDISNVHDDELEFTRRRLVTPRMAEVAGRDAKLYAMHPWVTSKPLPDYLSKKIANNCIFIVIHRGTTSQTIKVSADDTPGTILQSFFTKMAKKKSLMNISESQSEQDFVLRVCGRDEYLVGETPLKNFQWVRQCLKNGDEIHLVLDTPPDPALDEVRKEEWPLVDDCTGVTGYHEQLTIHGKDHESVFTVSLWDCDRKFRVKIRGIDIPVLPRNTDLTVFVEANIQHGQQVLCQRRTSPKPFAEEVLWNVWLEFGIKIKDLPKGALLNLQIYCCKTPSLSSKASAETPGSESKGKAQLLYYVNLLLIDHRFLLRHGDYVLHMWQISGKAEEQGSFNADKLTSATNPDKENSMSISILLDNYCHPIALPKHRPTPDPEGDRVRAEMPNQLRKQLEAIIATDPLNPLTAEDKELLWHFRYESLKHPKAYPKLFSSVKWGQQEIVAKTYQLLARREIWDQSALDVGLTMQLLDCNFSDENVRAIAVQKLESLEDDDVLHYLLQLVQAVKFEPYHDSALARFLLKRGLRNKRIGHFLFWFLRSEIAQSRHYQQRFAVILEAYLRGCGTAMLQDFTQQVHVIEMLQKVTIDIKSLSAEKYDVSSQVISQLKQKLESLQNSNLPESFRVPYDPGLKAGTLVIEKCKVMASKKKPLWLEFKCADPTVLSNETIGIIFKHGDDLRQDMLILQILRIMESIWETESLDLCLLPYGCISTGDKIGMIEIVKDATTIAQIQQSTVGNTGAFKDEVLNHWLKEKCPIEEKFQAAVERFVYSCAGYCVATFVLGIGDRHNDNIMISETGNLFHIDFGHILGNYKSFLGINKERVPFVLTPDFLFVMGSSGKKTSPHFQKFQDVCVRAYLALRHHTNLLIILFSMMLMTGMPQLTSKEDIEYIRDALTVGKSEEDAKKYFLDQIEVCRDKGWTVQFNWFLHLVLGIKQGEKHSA
Experimental: PI3K gamma (PI3Kγ) activity was determined by measuring the phosphorylation of AKT (Ser473) using an in-cell ELISA assay. RAW 264.7 (mouse macrophage) cells were obtained from ATCC (ATCC #TIB-71). Growth medium was DMEM (CellGro #CV-10-013-CV) supplemented with 10% fetal bovine serum, 100 IU/mL penicillin, 100 μg/mL streptomycin, and 1×MEM non-essential amino acids. Phosphate buffered saline (PBS) contained 2.7 M NaCl, 54 mM KCl, 86 mM […] (dibasic, anhydrous), and 28 mM […] (monobasic, anhydrous) at pH 7.2. Stimulation mixture (10×) was 500 ng/mL recombinant human complement component C5a (R&D systems #2037-C5-025) diluted in serum-free DMEM medium (CellGro #CV-10-013-CV). Compounds for testing were dissolved and serially diluted in 100% DMSO (total of 10 concentrations), then diluted in serum-free DMEM to 2× final assay concentration. Fixative solution (2×) was 8% formaldehyde (Amresco #M134) diluted in PBS. Permeabilization solution was PBS supplemented with 0.10% Triton X-100. Blocking buffer was obtained from LiCor (LiCor #927-40000). Wash buffer was PBS supplemented with 0.1% Tween-20. Primary antibody solution was rabbit anti-pAKT^S473 monoclonal antibody (Cell Signaling #4060) and mouse anti-total S6 (Santa Cruz #74459) diluted 1:500 and 1:2000, respectively, in the blocking buffer. Secondary antibody solution was IRDye 800CW-conjugated goat anti-rabbit IgG (LiCor #926-32211) and IRDye 680LT-conjugated goat anti-mouse IgG (LiCor #926-68020) diluted 1:1000 and 1:2000, respectively, in the blocking buffer.
RAW 264.7 cells were subcultured in growth medium and seeded into flat, clear bottom, 96-well plates (Corning #3904) at 70000 cells/well, then incubated overnight in a 37° C., 5% CO2 incubator. Growth medium in plates was replaced with 100 μL/well serum-free DMEM and incubated overnight in a 37° C., 5% CO2 incubator. Fresh serum-free DMEM (50 μL/well) was added to plates. Compound treatment was performed by adding 50 μL/well of 2× compound mixture to plates and incubating for 2 hrs at 37° C., 5% CO2, after which 11 μL/well of 10× stimulation mixture was added and plates were incubated for 3 min at 37° C., 5% CO2. Fixation was performed by adding 110 μL/well of 2× fixative solution to plates and incubating for 20 min at room temperature. Permeabilization was performed by replacing fixation solution with 150 μL/well permeabilization solution and incubating for 10 min at room temperature. Permeabilization was repeated (for a total of 2 times). Permeabilization solution was replaced with 100 μL/well blocking buffer and plates were incubated for 1 hr at room temperature, after which 100 μL/well of primary antibody solution was added and plates were incubated overnight at 4° C. Plates were washed with wash buffer, after which 100 μL/well of secondary antibody solution was added to the plates and incubated in the dark for 1 hr at room temperature. Plates were washed with wash buffer, followed by awash with PBS. After completely removing PBS, plates were scanned on the Licor Odyssey Imager. Images were quantified using Licor Odyssey application software. IC50 values were determined by curve fitting using a Collaborative Drug Discovery database (www.collaborativedrug.com).

Chain of PI3Kα (P27986 2-724): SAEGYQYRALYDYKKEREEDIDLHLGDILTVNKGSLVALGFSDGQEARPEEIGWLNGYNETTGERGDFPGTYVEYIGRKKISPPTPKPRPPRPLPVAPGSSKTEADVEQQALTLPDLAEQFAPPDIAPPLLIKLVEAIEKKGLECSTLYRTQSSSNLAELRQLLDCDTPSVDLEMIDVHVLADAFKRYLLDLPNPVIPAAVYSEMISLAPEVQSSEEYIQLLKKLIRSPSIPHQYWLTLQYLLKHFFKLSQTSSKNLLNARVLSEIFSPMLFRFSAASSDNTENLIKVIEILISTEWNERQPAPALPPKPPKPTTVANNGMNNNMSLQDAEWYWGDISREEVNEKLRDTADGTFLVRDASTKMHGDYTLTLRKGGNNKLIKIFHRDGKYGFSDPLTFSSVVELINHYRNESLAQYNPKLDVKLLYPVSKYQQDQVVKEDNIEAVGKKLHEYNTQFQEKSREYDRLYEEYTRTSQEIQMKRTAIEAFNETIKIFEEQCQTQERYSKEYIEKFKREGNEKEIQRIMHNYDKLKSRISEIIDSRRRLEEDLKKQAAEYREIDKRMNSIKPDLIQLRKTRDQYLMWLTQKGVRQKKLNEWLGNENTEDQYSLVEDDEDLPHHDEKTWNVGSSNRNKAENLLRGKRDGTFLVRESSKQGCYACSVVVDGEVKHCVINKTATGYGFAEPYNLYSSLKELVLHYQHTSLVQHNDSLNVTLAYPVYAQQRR
Chain of PI3Kα (P42336 whole entry): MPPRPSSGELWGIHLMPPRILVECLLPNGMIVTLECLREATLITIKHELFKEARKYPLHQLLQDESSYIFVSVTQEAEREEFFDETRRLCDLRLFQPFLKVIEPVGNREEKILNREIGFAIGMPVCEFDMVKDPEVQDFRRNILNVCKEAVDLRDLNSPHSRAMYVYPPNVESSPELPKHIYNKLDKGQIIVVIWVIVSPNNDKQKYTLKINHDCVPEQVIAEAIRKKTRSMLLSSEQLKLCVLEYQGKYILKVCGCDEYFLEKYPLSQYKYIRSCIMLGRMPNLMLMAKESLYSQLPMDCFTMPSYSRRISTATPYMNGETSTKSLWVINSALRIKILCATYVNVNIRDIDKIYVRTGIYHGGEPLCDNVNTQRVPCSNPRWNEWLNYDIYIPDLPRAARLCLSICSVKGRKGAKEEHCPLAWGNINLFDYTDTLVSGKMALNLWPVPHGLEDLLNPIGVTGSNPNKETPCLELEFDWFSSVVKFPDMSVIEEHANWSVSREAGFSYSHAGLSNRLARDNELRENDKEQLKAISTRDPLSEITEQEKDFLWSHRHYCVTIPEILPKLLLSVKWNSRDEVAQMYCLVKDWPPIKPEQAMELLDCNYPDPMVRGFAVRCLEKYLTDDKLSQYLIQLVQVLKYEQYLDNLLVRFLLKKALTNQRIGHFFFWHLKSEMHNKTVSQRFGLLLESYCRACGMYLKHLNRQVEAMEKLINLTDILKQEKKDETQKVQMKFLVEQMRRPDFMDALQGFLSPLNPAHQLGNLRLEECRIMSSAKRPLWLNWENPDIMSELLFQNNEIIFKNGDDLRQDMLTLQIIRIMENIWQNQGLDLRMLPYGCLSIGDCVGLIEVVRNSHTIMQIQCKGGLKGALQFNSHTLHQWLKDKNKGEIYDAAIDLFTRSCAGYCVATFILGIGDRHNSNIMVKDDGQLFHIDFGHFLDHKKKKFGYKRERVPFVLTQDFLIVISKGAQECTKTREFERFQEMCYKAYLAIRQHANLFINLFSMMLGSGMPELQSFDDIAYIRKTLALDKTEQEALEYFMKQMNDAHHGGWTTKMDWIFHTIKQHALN

SMILES	IC50 [1]	IC50 [2]
CC(C)(Cc1ccccc1-c1cn[nH]c1)Nc1nc(N2CCOCC2)nc(-n2c(C(F)F)nc3ccccc32)n1 [Compound A44, 4-(2-(difluoromethyl)-1H-benzo[d]imidazol-1-yl)-N-(1-(2-(1H-pyrazol-4-yl)phenyl)-2-methylpropan-2-yl)-6-morpholino-1,3,5-triazin-2-amine]	> 500 nM	≤ 100 nM
Cn1cc(-c2ccccc2CC(C)(C)Nc2nc(N3CCOCC3)nc(-n3c(C(F)F)nc4ccccc43)n2)cn1 [Compound A45, 4-(2-(difluoromethyl)-1H-benzo[d]imidazol-1-yl)-N-(2-methyl-1-(2-(1-methyl-1H-pyrazol-4-yl)phenyl)propan-2-yl)-6-morpholino-1,3,5-triazin-2-amine]	200 to 500 nM	≤ 100 nM
Cn1nccc1-c1ccccc1CC(C)(C)Nc1nc(N2CCOCC2)nc(-n2c(C(F)F)nc3ccccc32)n1 [Compound A46, 4-(2-(difluoromethyl)-1H-benzo[d]imidazol-1-yl)-N-(2-methyl-1-(2-(1-methyl-1H-pyrazol-5-yl)phenyl)propan-2-yl)-6-morpholino-1,3,5-triazin-2-amine]	> 500 nM	200 to 500 nM
Cc1cccc(CC(C)(C)Nc2nc(N3CCOCC3)nc(-n3c(C(F)F)nc4ccccc43)n2)c1 [Compound A49, 4-(2-(difluoromethyl)-1H-benzo[d]imidazol-1-yl)-N-(2-methyl-1-m-tolylpropan-2-yl)-6-morpholino-1,3,5-triazin-2-amine]	> 500 nM	200 to 500 nM
COc1cc(CC(C)(C)Nc2nc(N3CCOCC3)nc(-n3c(C(F)F)nc4ccccc43)n2)ccc1F [Compound A50, 4-(2-(difluoromethyl)-1H-benzo[d]imidazol-1-yl)-N-(1-(4-fluoro-3-methoxyphenyl)-2-methylpropan-2-yl)-6-morpholino-1,3,5-triazin-2-amine]	> 500 nM	200 to 500 nM
CC(C)(Cc1ccc(F)cc1F)Nc1nc(N2CCOCC2)nc(-n2c(C(F)F)nc3ccccc32)n1 [Compound A51, 4-(2-(difluoromethyl)-1H-benzo[d]imidazol-1-yl)-N-(1-(2,4-difluorophenyl)-2-methylpropan-2-yl)-6-morpholino-1,3,5-triazin-2-amine]	> 500 nM	100 to 200 nM
CC(C)(Cc1c(F)cccc1F)Nc1nc(N2CCOCC2)nc(-n2c(C(F)F)nc3ccccc32)n1 [Compound A52, 4-(2-(difluoromethyl)-1H-benzo[d]imidazol-1-yl)-N-(1-(2,6-difluorophenyl)-2-methylpropan-2-yl)-6-morpholino-1,3,5-triazin-2-amine]	> 500 nM	100 to 200 nM
CC(C)(Cc1ccccc1-c1ccccc1F)Nc1nc(N2CCOCC2)nc(-n2c(C(F)F)nc3ccccc32)n1 [Compound A59, 4-(2-(difluoromethyl)-1H-benzo[d]imidazol-1-yl)-N-(1-(2′-fluorobiphenyl-2-yl)-2-methylpropan-2-yl)-6-morpholino-1,3,5-triazin-2-amine]	> 500 nM	> 500 nM
Cc1ccccc1-c1ccccc1CC(C)(C)Nc1nc(N2CCOCC2)nc(-n2c(C(F)F)nc3ccccc32)n1 [Compound A60, 4-(2-(difluoromethyl)-1H-benzo[d]imidazol-1-yl)-N-(2-methyl-1-(2′-methylbiphenyl-2-yl)propan-2-yl)-6-morpholino-1,3,5-triazin-2-amine]	> 500 nM	> 500 nM
CC(C)(Cc1ccccc1-c1ccccc1Cl)Nc1nc(N2CCOCC2)nc(-n2c(C(F)F)nc3ccccc32)n1 [Compound A61, 4-(2-(difluoromethyl)-1H-benzo[d]imidazol-1-yl)-N-(1-(6′-chlorobiphenyl-2-yl)-2-methylpropan-2-yl)-6-morpholino-1,3,5-triazin-2-amine]	> 500 nM	> 500 nM
CC(C)(Cc1ccccc1-c1cccnc1F)Nc1nc(N2CCOCC2)nc(-n2c(C(F)F)nc3ccccc32)n1 [Compound A62]	> 500 nM	200 to 500 nM
CC(C)(Cc1ccccc1-c1cncnc1)Nc1nc(N2CCOCC2)nc(-n2c(C(F)F)nc3ccccc32)n1 [Compound A63, 4-(2-(difluoromethyl)-1H-benzo[d]imidazol-1-yl)-N-(2-methyl-1-(2-(pyrimidin-5-yl)phenyl)propan-2-yl)-6-morpholino-1,3,5-triazin-2-amine]	> 500 nM	> 500 nM
CN1CCN(c2cc(-c3ccccc3CC(C)(C)Nc3nc(N4CCOCC4)nc(-n4c(C(F)F)nc5ccccc54)n3)ccn2)CC1 [Compound A64, 4-(2-(difluoromethyl)-1H-benzo[d]imidazol-1-yl)-N-(2-methyl-1-(2-(2-(4-methylpiperazin-1-yl)pyridin-4-yl)phenyl)propan-2-yl)-6-morpholino-1,3,5-triazin-2-amine]	> 500 nM	> 500 nM
CC(C)(Cc1ccccc1-c1cccc(CN2CCOCC2)c1)Nc1nc(N2CCOCC2)nc(-n2c(C(F)F)nc3ccccc32)n1 [Compound A65, 4-(2-(difluoromethyl)-1H-benzo[d]imidazol-1-yl)-N-(2-methyl-1-(3′-(morpholinomethyl)biphenyl-2-yl)propan-2-yl)-6-morpholino-1,3,5-triazin-2-amine]	> 500 nM	200 to 500 nM
COc1cccc(-c2ccccc2CC(C)(C)Nc2nc(N3CCOCC3)nc(-n3c(C(F)F)nc4ccccc43)n2)c1 [Compound A66, 4-(2-(difluoromethyl)-1H-benzo[d]imidazol-1-yl)-N-(1-(3′-methoxybiphenyl-2-yl)-2-methylpropan-2-yl)-6-morpholino-1,3,5-triazin-2-amine]	> 500 nM	> 500 nM
